Here are results for two compounds from ChEMBL document CHEMBL5370523, “Clinically approved small-molecule drugs for the treatment of rheumatoid arthritis” (Eur J Med Chem, 2023).

Test [1] deals with T1, Prostaglandin G/H synthase 2 (Homo sapiens, UniProt P35354).
T1 sequence (P35354 whole entry): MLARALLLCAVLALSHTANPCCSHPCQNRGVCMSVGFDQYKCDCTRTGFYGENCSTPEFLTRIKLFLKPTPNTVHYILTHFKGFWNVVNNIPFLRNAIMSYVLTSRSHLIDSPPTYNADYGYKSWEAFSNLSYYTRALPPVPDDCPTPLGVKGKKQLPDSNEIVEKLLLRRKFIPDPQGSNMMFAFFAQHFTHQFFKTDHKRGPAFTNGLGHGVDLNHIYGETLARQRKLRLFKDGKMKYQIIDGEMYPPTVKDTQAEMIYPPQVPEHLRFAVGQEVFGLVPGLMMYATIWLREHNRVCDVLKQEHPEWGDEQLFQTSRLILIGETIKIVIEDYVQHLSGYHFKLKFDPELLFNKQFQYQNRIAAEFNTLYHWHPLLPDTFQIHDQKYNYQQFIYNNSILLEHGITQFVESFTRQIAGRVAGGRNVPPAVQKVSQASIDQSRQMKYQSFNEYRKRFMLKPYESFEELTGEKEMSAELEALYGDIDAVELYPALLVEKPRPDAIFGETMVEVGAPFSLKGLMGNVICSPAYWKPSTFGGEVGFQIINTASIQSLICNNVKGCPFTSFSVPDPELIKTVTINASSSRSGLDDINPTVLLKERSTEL

In test [2] the target is Prostaglandin G/H synthase 1 (Homo sapiens, UniProt P23219). It counts as tissue-based, Blood.
Description: Inhibition of COX-1 in human whole blood preincubated for 60 mins followed by calcium ionophore A23187 addition and measured after 30 mins by radioimmunoassay
The target of test [3] is T1, Prostaglandin G/H synthase 2. The class given is tissue-based, Blood.

Sequence of Prostaglandin G/H synthase 1 (P23219 whole entry): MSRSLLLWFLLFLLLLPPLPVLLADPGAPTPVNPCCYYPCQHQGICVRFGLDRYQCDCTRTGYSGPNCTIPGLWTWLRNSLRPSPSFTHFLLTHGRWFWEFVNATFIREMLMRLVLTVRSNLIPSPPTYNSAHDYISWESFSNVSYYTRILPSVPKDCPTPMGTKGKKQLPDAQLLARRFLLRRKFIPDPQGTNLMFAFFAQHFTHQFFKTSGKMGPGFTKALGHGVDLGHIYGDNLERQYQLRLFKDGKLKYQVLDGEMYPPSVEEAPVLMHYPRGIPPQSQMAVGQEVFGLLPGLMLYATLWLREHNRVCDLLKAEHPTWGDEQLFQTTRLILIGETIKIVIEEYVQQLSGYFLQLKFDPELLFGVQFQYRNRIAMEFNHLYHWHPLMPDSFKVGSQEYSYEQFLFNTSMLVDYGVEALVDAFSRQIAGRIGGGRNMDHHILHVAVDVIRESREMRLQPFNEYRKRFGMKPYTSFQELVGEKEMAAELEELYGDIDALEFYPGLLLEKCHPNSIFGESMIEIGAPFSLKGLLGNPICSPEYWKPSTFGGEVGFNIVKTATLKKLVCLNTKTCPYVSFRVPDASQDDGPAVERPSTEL

For the compound `O=C(O)CCc1nc(-c2ccccc2)c(-c2ccccc2)o1` [OXAPROZIN], in test [1], the midpoint of inhibition, the IC50, lay at 36000 nM. Regarding `Cc1ccc(C(=O)c2ccc(CC(=O)O)n2C)cc1` [TOLMETIN], the IC50 in test [2] is 350 nM; in test [3], 820 nM.

As usually defined, the IC50 is the concentration needed to halve the response being measured.
